Read-outs that look alike come from different tables or passages of the source. One block for each molecule: values may come before it.
Columns and labels:
[1] = human, in vivo, iv
From the text: It was a single arm, multi dose, dose escalating trial in newly diagnosed GBM patients. The total number of patients was 43, with about 5 patients per cohort. Patients who tolerated radiation (XRT) and temozolomide (TMZ) were recruited. Inclusion criteria included completion of XRT and TMZ without grade 3 or 4 toxicity and labs within acceptable range within 6 weeks of completing XRT. The end points included safety, maximum tolerated dose (MTD), and signal of activity.
The patients were separated into two study groups with the following treatment schema (also see FIG. 1).
Continuous Reassessment Method (CRM) was used to determine dose escalation. PK was drawn at cycle 1, 2, 3 and off treatment. PD via PBMCs was drawn at cycle 1, 2, 3 and off treatment. No cytochrome P450-inducing anticonvulsants. However, Gliadel was permitted.
Dosing is IV 2×/week continuous.

[2] = tested on: same patient population (newly diagnosed GBM); assay: EORTC Phase III trial, Stupp et al. 2005 (RT plus concomitant and adjuvant temozolomide); format: in vivo, human; conditions: 2005 n = 287, conversion
From the text: (§1) For assessing the efficacy of the treatment in terms of overall survival, the overall failure rate were estimated and compared to the failure rate of 0.6 per-person year of follow-up regarding the Phase III trial done by Stupp et al. in the same patient population treated with RT plus concomitant and adjuvant temozolomide.

GBM patients = assay: RTOG 0525 trial, 2013 (STD and DD arms); format: in vivo, human; conditions: conversion
[3] = tested on: same patient population (newly diagnosed GBM); conditions: Stupp et al, 2005 (RT + temozolomide); cited from earlier work
[4] = tested on: newly diagnosed GBM patients; assay: Phase I GBM study: safety, DLT, MTD, adverse events; format: in vivo, human
Method: Study Group 1 Treatment Cycles 4 weeks each (N=23)
Study Group 2 Treatment Cycles 10 weeks each (N=20)
No cytochrome P450-inducing anticonvulsants. However, Gliadel was permitted.
Group 1: TMZ (150-200 mg/m^2 given 5 days/month×6 cycles)—standard dose with BSI-201 starting at 5.1 mg/kg.
Group 2: TMZ (75 mg/m^2 daily 42 days on 30 days off×3 cycles)—metronomic dose with BSI-201 starting at 5.1 mg/kg.
Using modified continual reassessment method, MTD was defined for metronomic and standard dose TMZ. 6 dose levels were tested (lowest 5.1 mg/kg-highest 9.5 mg/kg IV 2×/wk). […] The DLTs across both groups were: rash (1), hypersensitivity reaction (1), fatigue (1) and a thromboembolic event (1). […] Phase 2 dose defined as 8 mg/kg IV 2×/wk with standard TMZ and 8.6 mg/kg IV 2×/wk with metronomic TMZ.

[5] = tested on: adult patients with newly diagnosed glioblastoma multiforme (GBM); assay: Phase II GBM trial (ABTC0703): overall survival; format: in vivo, human
Method: 76 patients were recruited for this study.
The following treatment schema (also see FIG. 2).
RT: 60 Gy (total) TMZ: Daily 75 mg/m^2
BSI-201: once per day, twice a week (8.0 mg/kg IV q2 wk)
Rest (4 weeks) with no treatment.
Maintenance Cycles 1-6 (4 weeks)
BSI-201: once per day, twice a week (8.6 mg/kg IV q2 wk)
as §1
The primary endpoint was death due to all causes. The survival time is defined from time of histological diagnosis to death occurrence. The overall failure rate was expressed as hazard of failure per person-year of follow-up. The total patient population for this part of the study was defined as all patients who have met the eligibility criteria, not met ineligibility criteria, and signed patient informed consent.
It yield above 90% power to detect a 30% reduction in hazard rate with observed hazard ratio of 0.7 (0.42 vs. 0.6) at an alpha level of 0.1 to be significant. The overall failure rate was estimated by dividing the number of events (deaths) by the total exposure time in the study cohort along with 95% confidence intervals. Survival probability and median time of survival was calculated using Kaplan-Meier method.

- Cmax ([1]; 5.1 mg/kg): 5.7 ± 4.1 ng/mL
- Cmax ([1]; 6.1 mg/kg): 7.2 ± 1.8 ng/mL
- Cmax ([1]; 6.8 mg/kg): 8.4 ± 3.7 ng/mL
- Cmax ([1]; 8 mg/kg): 10.3 ± 2.9 ng/mL
- Cmax ([1]; 8.6 mg/kg): 9.7 ± 2.4 ng/mL
- Cmax ([1]; 9.5 mg/kg): 13.6 ± 5.3 ng/mL
SMILES: NC(=O)c1ccc(I)c(N)c1 [IABM]

SMILES: Cn1nnc2c(C(N)=O)ncn2c1=O [temozolomide]
- Hazard Rate (per person year of follow-up) [2]: 0.6 per person year of follow-up
- Hazard Rate (per person year of follow-up) (GBM patients; RTOG 0525, 2013 DD arm, n = 422): 0.558 per person year of follow-up
- Hazard Rate (per person year of follow-up) (GBM patients; RTOG 0525, 2013 STD arm, n = 411): 0.501 per person year of follow-up
- Neutrophil Count Decreased [3]: 7%
- Platelet Count Decreased [3]: 12%
- White Blood Cell Decreased [3]: 7%

SMILES: NC(=O)c1ccc(I)c([N+](=O)[O-])c1 [Iniparib, 4-iodo-3-nitrobenzamide]
- Phase 2 dose ([4]; IV 2×/wk with metronomic TMZ): 8.6 mg/kg
- Phase 2 dose ([4]; IV 2×/wk with standard TMZ): 8 mg/kg
- DLT: fatigue (number) ([4]; human, in vivo): 1
- DLT: hypersensitivity reaction (number) ([4]; human, in vivo): 1
- DLT: rash (number) ([4]; human, in vivo): 1
- DLT: thromboembolic event (number) ([4]; human, in vivo): 1
- White counts decreased ([4]; human, in vivo): 22 (51) No. (% of pts)
- Median Overall Survival, mOS, MGMT methylated ([5]; ABTC0703, n = 29): 27 (n = 29) Months
- Median Overall Survival, mOS, MGMT unmethylated ([5]; ABTC0703, n = 37): 15.8 (n = 37) Months
- Hazard Rate (per person year of follow-up) ([5]; ABTC0703 n = 76, hazard rate of death): 0.403 per person year of follow-up
- Median Overall Survival Months, (95% CI) ([5]; ABTC0703 n = 76, iniparib + RT + TMZ, then iniparib + TMZ maintenance): 21.6 (16.1-23.7) Months
- Comparison with RTOG 0525 (2013) ([5]; extrapolated and not pre-planned analysis): improved
- Reduction of HR versus Stupp et al 2005 ([5]; single arm phase 2, efficacy endpoint met): ≥ 25%

From patent publication US11433075B2, “Methods of treating glioblastoma” (TriAct Therapeutics, Inc., priority 2017, dated 2022)
